Experimental data published in patent US20110071180A1, “SUB-TYPE SELECTIVE AMIDES OF DIAZABICYCLOALKANES” (Targacept, Inc., priority 2008, published 2011).
Read-outs that look alike come from different tables or passages of the source.

Columns and labels:
[1] = target: T1, rat α4β2 nAChR subtype (Rattus norvegicus, UniProt P09483+P12390); experiment: Radioligand binding, [3H]nicotine, rat cortex membranes; settings: [3H]nicotine 5 nM
T1 construct: The cerebral cortex was removed and placed in 20 volumes (weight:volume) of ice-cold preparative buffer; from tissue; host or cells: rat cerebral cortex membranes (female Sprague-Dawley)
Description: Preparation of Membranes from Rat Cortex: Rats (Female, Sprague-Dawley), weighing 150-250 g, were maintained on a 12 h light/dark cycle and were allowed free access to water and food supplied by PMI Nutrition International, Inc. Animals were anesthetized with 70% CO2, and then decapitated. Brains were removed and placed on an ice-cold platform. The cerebral cortex was removed and placed in 20 volumes (weight:volume) of ice-cold preparative buffer (137 mM NaCl, 10.7 mM KCl, 5.8 mM KH2PO4, 8 mM Na2HPO4, 20 mM HEPES (free acid), 5 mM iodoacetamide, 1.6 mM EDTA, pH 7.4); PMSF, dissolved in methanol to a final concentration of 100 μM, was added and the suspension was homogenized by Polytron. The homogenate was centrifuged at 18,000×g for 20 min at 4° C. and the resulting pellet was re-suspended in 20 volumes of ice-cold water. After 60 min incubation on ice, a new pellet was collected by centrifugation at 18,000×g for 20 min at 4° C. The final pellet was re-suspended in 10 volumes of buffer and stored at −20° C.
(§1) On the day of the assay, the frozen membranes were thawed and spun at 48,000×g for 20 min. The supernatant was decanted and discarded. The pellet was resuspended in Dulbecco's phosphate buffered saline (PBS, Life Technologies) pH 7.4 and homogenized with the Polytron for 6 seconds. Protein concentrations were determined using a Pierce BCA Protein Assay Kit, with bovine serum albumin as the standard (Pierce Chemical Company, Rockford, Ill.).
(§2) Membrane preparations (approximately 50 μg for human and 200-300 μg protein for rat α4β2) were incubated in PBS (50 μL and 100 μL respectively) in the presence of competitor compound (0.01 nM to 100 μM) and 5 nM [^3H]nicotine for 2-3 hours on ice. Incubation was terminated by rapid filtration on a multi-manifold tissue harvester (Brandel, Gaithersburg, Md.) using GF/B filters presoaked in 0.33% polyethyleneimine (w/v) to reduce non-specific binding. Tissue was rinsed 3 times in PBS, pH 7.4. Scintillation fluid was added to filters containing the washed tissue and allowed to equilibrate. Filters were then counted to determine radioactivity bound to the membranes by liquid scintillation counting (2200CA Tri-Carb LSC, Packard Instruments, 50% efficiency or Wallac Trilux 1450 MicroBeta, 40% efficiency, Perkin Elmer).
(§3) Data were expressed as disintegrations per minute (DPMs). Within each assay, each point had 2-3 replicates. The replicates for each point were averaged and plotted against the log of the drug concentration. IC50, which is the concentration of the compound that produces 50% inhibition of binding, was determined by least squares non-linear regression. Ki values were calculated using the Cheng-Prussof equation (1973): […]

[2] = target: T2, human α4β2 nAChR subtype (Homo sapiens, UniProt P17787+P43681); experiment: Radioligand binding, [3H]nicotine, membranes from SH-EP1/human α4β2 clonal cells; settings: [3H]nicotine 5 nM, SH-EP1/human α4β2 cell membranes
T2 construct: expressed in transfected cells; host or cells: SH-EP1 clonal cells expressing human α4β2
Description: Preparation of membranes from SH-EP1/human α4β2 clonal cells: Cell pellets from 40 150 mm culture dishes were pooled, and homogenized by Polytron (Kinematica GmbH, Switzerland) in 20 milliliters of ice-cold preparative buffer. The homogenate was centrifuged at 48,000 g for 20 minutes at 4° C. The resulting pellet was re-suspended in 20 mL of ice-cold preparative buffer and stored at −20° C.
as §1, §2, §3

[3] = target: T3, α7 nAChR subtype (Rattus norvegicus, UniProt Q05941); experiment: Radioligand binding, [3H]MLA, rat hippocampus membranes; settings: for inhibition at 5 µM: read-out: α7 high through-put screening (HTS) result
T3 construct: The hippocampus was removed and placed in 10 volumes (weight:volume) of ice-cold preparative buffer; from tissue; host or cells: rat hippocampus membranes (female Sprague-Dawley)
Description: Rats (female, Sprague-Dawley), weighing 150-250 g, were maintained on a 12 h light/dark cycle and were allowed free access to water and food supplied by PMI Nutrition International, Inc. Animals were anesthetized with 70% CO2, then decapitated. Brains were removed and placed on an ice-cold platform. The hippocampus was removed and placed in 10 volumes (weight:volume) of ice-cold preparative buffer (137 mM NaCl, 10.7 mM KCl, 5.8 mM KH2PO4, 8 mM Na2HPO4, 20 mM HEPES (free acid), 5 mM iodoacetamide, 1.6 mM EDTA, pH 7.4); PMSF, dissolved in methanol to a final concentration of 100 μM, was added and the tissue suspension was homogenized by Polytron. The homogenate was centrifuged at 18,000×g for 20 min at 4° C. and the resulting pellet was re-suspended in 10 volumes of ice-cold water. After 60 min incubation on ice, a new pellet was collected by centrifugation at 18,000×g for 20 min at 4° C. The final pellet was re-suspended in 10 volumes of buffer and stored at −20° C. On the day of the assay, tissue was thawed, centrifuged at 18,000×g for 20 min, and then re-suspended in ice-cold PBS (Dulbecco's Phosphate Buffered Saline, 138 mM NaCl, 2.67 mM KCl, 1.47 mM KH2PO4, 8.1 mM Na2HPO4, 0.9 mM CaCl2, 0.5 mM MgCl2, Invitrogen/Gibco, pH 7.4) to a final concentration of approximately 2 mg protein/mL. Protein was determined by the method of Lowry et al., J. Biol. Chem. 193: 265 (1951), using bovine serum albumin as the standard.
The binding of [^3H]MLA was measured using a modification of the methods of Davies et al., Neuropharmacol. 38: 679 (1999). [^3H]MLA (Specific Activity=25-35 Ci/mmol) was obtained from Tocris. The binding of [^3H]MLA was determined using a 2 h incubation at 21° C. Incubations were conducted in 48-well micro-titre plates and contained about 200 μg of protein per well in a final incubation volume of 300 μL. The incubation buffer was PBS and the final concentration of [^3H]MLA was 5 nM. The binding reaction was terminated by filtration of the protein containing bound ligand onto glass fiber filters (GF/B, Brandel) using a Brandel Tissue Harvester at room temperature. Filters were soaked in de-ionized water containing 0.33% polyethyleneimine to reduce non-specific binding. Each filter was washed with PBS (3×1 mL) at room temperature. Non-specific binding was determined by inclusion of 50 μM non-radioactive MLA in selected wells.
The inhibition of [^3H]MLA binding by test compounds was determined by including seven different concentrations of the test compound in selected wells. Each concentration was replicated in triplicate. IC50 values were estimated as the concentration of compound that inhibited 50 percent of specific [^3H]MLA binding. Inhibition constants (Ki values), reported in nM, were calculated from the IC50 values using the method of Cheng et al., Biochem. Pharmacol. 22: 3099-3108 (1973).

[4] = [3H]MLA 5 nM, rat hippocampus membranes, read-out: α7 Ki

T1 sequence (P09483 31-630): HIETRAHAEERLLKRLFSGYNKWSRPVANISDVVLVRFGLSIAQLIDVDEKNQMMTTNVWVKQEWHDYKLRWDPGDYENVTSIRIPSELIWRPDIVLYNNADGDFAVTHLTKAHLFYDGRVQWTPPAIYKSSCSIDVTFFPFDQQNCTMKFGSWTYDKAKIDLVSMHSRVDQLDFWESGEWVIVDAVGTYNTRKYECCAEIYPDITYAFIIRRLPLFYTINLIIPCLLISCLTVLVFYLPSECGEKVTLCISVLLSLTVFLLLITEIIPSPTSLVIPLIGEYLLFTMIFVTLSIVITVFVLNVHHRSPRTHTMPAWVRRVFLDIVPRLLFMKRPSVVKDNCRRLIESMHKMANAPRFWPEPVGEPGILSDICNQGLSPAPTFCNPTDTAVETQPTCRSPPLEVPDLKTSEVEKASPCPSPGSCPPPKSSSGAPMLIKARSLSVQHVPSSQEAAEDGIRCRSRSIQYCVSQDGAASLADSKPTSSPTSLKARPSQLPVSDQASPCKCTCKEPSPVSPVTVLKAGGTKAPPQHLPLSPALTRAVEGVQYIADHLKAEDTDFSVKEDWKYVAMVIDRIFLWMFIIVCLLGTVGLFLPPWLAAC
T1 sequence (P12390 25-500): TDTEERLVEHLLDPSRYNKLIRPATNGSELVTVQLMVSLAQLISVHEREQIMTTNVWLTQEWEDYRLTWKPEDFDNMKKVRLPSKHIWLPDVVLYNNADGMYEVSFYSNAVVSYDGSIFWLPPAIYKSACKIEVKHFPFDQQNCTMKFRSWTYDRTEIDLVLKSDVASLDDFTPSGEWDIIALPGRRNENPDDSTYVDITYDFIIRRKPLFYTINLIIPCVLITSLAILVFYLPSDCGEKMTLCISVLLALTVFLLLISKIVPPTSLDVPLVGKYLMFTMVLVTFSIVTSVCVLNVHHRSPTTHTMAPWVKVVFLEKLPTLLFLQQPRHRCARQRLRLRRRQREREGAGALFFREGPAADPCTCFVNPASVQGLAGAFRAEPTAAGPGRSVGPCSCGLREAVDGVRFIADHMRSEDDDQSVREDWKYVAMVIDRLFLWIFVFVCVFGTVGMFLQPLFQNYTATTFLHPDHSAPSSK
T3 sequence (Q05941 23-502): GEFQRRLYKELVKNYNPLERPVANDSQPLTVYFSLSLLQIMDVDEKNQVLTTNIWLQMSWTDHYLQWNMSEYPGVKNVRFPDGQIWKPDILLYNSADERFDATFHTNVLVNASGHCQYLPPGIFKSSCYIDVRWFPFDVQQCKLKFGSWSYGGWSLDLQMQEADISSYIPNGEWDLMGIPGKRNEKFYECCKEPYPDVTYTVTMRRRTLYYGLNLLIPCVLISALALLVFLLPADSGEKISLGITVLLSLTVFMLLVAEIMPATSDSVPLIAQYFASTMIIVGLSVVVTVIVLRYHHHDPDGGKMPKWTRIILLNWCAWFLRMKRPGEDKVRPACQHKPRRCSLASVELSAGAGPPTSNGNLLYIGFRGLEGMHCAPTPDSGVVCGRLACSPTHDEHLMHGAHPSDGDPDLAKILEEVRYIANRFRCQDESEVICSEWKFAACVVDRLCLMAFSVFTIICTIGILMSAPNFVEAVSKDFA
T2 sequence (P43681 29-627 limits assumed): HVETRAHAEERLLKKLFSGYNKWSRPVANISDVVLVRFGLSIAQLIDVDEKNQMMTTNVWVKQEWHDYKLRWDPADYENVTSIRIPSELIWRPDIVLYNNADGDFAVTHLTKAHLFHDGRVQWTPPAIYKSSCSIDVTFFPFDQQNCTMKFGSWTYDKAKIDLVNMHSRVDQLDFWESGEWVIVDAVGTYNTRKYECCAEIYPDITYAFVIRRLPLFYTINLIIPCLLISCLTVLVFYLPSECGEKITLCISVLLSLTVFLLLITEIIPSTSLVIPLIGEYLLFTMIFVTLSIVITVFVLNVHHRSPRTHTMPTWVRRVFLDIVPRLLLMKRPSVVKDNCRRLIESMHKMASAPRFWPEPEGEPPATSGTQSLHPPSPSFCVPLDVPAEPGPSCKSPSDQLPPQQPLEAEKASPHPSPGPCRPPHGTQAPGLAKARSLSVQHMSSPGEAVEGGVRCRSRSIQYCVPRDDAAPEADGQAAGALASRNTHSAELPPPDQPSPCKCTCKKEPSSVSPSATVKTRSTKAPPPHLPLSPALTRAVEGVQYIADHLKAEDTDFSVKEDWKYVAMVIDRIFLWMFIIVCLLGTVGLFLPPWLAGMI
T2 sequence (P17787 26-502): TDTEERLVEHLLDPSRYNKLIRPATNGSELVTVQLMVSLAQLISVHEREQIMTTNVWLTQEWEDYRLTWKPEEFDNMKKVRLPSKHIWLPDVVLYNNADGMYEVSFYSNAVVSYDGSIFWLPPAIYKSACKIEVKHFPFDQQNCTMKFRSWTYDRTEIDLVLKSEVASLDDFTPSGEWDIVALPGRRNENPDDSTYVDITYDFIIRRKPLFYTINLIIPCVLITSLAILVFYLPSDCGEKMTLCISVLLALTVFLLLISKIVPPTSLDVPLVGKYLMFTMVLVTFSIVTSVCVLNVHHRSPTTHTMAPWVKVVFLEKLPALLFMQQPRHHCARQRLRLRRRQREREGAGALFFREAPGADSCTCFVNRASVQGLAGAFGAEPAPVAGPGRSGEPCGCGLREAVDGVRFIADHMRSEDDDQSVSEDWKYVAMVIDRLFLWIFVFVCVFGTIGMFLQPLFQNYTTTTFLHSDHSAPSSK

Structure (SMILES) | Ki [1] [nM] | Ki [2] [nM] | inhibition at 5 µM [3] [%] | Ki [3, 4] [nM] | Ki ([3]; α7 Ki) [nM]
N#CC1(C(=O)N2CC3CNCC(C3)C2)CC1 [Example 10-74] | 4840 | 1340 | < 50 |  | 
O=C(CCF)N1CC2CNCC2C1 (stereo not drawn) [Example 10-30] | 22.4 | 14.8 | < 50 |  | 
O=C(C1CC12CCC2)N1CC2CNCC(C2)C1 (stereo not drawn) [Example 10-76] | 1.6 | 1.1 |  | 680 | 
O=C(C1CC2C=CC1C2)N1CC2CNCC(C2)C1 (stereo not drawn) [Example 10-94] | 22.7 | 12.6 | < 50 |  | 
CC1(C)C(C(=O)N2CC3CNCC(C3)C2)C1(C)C [Example 10-73] | 119 | 28.2 | < 50 |  | 
COCCC(=O)N1CC2CNCC(C2)C1 [Example 10-62] | 175 | 127 | < 50 |  | 
CS(=O)(=O)CC(=O)N1CC2CNCC2C1 (stereo not drawn) [Example 10-35] | 238 | 345 | < 50 |  | 
O=C(Cn1ccnc1)N1CC2CNCC(C2)C1 [Example 10-99] | 1320 | 821 | < 50 |  | 
CC1(C)C(C(=O)N2CC3CNCC3C2)C1(C)C (stereo not drawn) [Example 10-23] | 49.1 | 16.4 | < 50 |  | 
O=C(C1CCC[C@H]1O)N1CC2CNCC(C2)C1 (stereo partly drawn) [Example 10-96] | 776 | 731 | < 50 |  | 
O=C(C1=CCCC1)N1CC2CNCC2C1 (stereo not drawn) [Example 10-8] | 116 | 296 | < 50 |  | 
COCC(=O)N1CC2CNCC(C2)C1 [Example 10-61] | 50 | 38.8 |  | 1470 | 
O=C(C1CCC1)N1CC2CNCC2C1 (stereo not drawn) [Example 10-25] | 12.5 | 5.8 | < 50 |  | 
O=C(C1C2CCCCC21)N1CC2CNCC2C1 (stereo not drawn) [Example 10-45] | 26 | 8.6 |  | 508 | 
O=C1CCCC2=C1CC(C(=O)N1CC3CNCC3C1)CC2 (stereo not drawn) [Example 10-47] | 369 | 419 | < 50 |  | 
O=C(C1C[C@H]2C=C[C@@H]1CC2)N1CC2CNCC(C2)C1 (stereo partly drawn) [Example 10-100] | 256 | 72.4 | < 50 |  | 
C=CCC(=O)N1CC2CNCC2C1 (stereo not drawn) [Example 10-5] | 22.5 | 140 | < 50 |  | 
CCCC(=O)N1CC2CNCC(C2)C1 [Example 10-67] | 8.1 | 2.9 |  | 230 | 
O=C([C@H]1C[C@H]1F)N1CC2CNCC(C2)C1 [Example 10-92] | 15.9 | 7.3 |  |  | 360

Structure (SMILES) | Ki [1] [nM] | Ki [2] [nM] | inhibition at 5 µM [3] [%] | Ki [3, 4] [nM] | Ki ([3]; α7 Ki) [nM]
O=C(C1C[C@H]2C=C[C@@H]1CC2)N1CC2CNCC2C1 (stereo partly drawn) [Example 10-46] | 236 | 44.5 | < 50 |  | 
O=C(CC1CC1)N1CC2CNCC(C2)C1 [Example 10-83] | 13.3 | 33.9 | < 50 |  | 
O=C([C@H]1C[C@@H]1F)N1CC2CNCC(C2)C1 [Example 10-79] | 4.1 | 2 |  |  | 961
CC(C)=CC(=O)N1CC2CNCC2C1 (stereo not drawn) [Example 10-10] | 54.2 | 79.7 | < 50 |  | 
COCCC(=O)N1CC2CNCC2C1 (stereo not drawn) [Example 10-13] | 305 | 220 | < 50 |  | 
O=C(C1CC(F)C1)N1CC2CNCC2C1 (stereo not drawn) [Example 10-33] | 7.2 | 18 | < 50 |  | 
CC(F)(F)C(=O)N1CC2CNCC2C1 (stereo not drawn) [Example 10-40] | 8.6 | 9.8 | < 50 |  | 
CS(=O)(=O)CC(=O)N1CC2CNCC(C2)C1 [Example 10-85] | 190 | 131 | < 50 |  | 
O=C(N1CC2CNCC2C1)C1(O)CC1 (stereo not drawn) [Example 10-22] | 445 | 343 | < 50 |  | 
O=C(C1CC2C=CC1C2)N1CC2CNCC2C1 (stereo not drawn) [Example 10-43] | 34 | 15.8 | < 50 |  | 
O=C([C@H]1C[C@H]1F)N1CC2CNCC(C2)C1 [Example 10-78] | 2.9 | 1.7 |  |  | 397
O=C(CF)N1CC2CNCC2C1 (stereo not drawn) [Example 10-11] | 62.2 | 45.1 | < 50 |  | 
O=C(C1CCCC1)N1CC2CNCC2C1 (stereo not drawn) [Example 10-3] | 27.7 | 29.6 | < 50 |  | 
O=C(C1CC(F)C1)N1CC2CNCC(C2)C1 (stereo not drawn) [Example 10-82] | 1.4 | 2.9 |  | 1040 | 
O=C(C1CC=CCC1)N1CC2CNCC(C2)C1 (stereo not drawn) [Example 10-98] | 198 | 134 |  | 794 | 
CC1CC1C(=O)N1CC2CNCC(C2)C1 (stereo not drawn) [Example 10-71] | 1.4 | 1 |  | 78.7 | 
O=C(C1CCC1)N1CC2CNCC(C2)C1 [Example 10-75] | 1.6 | 1.4 |  | 70 | 
CCCC(=O)N1CC2CNCC2C1 (stereo not drawn) [Example 10-15] | 112 | 48.8 | < 50 |  | 
O=C(C1CC1)N1CC2CNCC2C1 (stereo not drawn) [Example 10-2] | 17.3 | 1.8 |  | 919 | 
